Data reported in PubChem BioAssay (NCI).
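Assay format: 96-well plates, 48-hour exposure. TGI: concentration producing complete growth inhibition.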

Key:
Experiment in all cases: NCI-60 cell line screen, 48 h
U251 CNS = tested on: U251 CNS
SK-MEL-2 melanoma = tested on: SK-MEL-2 melanoma
HCT-15 colon = tested on: HCT-15 colon
NCI-H460 lung = tested on: NCI-H460 lung
KM12 colon = tested on: KM12 colon
DU-145 prostate = tested on: DU-145 prostate
HT29 colon = tested on: HT29 colon
HL-60(TB) leukemia = tested on: HL-60(TB) leukemia
SNB-19 CNS = tested on: SNB-19 CNS
HCT-116 colon = tested on: HCT-116 colon
MCF7 breast = tested on: MCF7 breast
SK-MEL-28 melanoma = tested on: SK-MEL-28 melanoma
SNB-75 CNS = tested on: SNB-75 CNS
OVCAR-8 ovarian = tested on: OVCAR-8 ovarian
K-562 leukemia = tested on: K-562 leukemia
MDA-MB-231 breast = tested on: MDA-MB-231 breast
MOLT-4 leukemia = tested on: MOLT-4 leukemia
A549 NSCLC = tested on: A549 NSCLC

| SMILES | TGI (U251 CNS) | TGI (SK-MEL-2 melanoma) | TGI (HCT-15 colon) | TGI (NCI-H460 lung) | TGI (KM12 colon) | TGI (DU-145 prostate) | TGI (HT29 colon) | TGI (HL-60(TB) leukemia) | TGI (SNB-19 CNS) | TGI (HCT-116 colon) | TGI (MCF7 breast) | TGI (SK-MEL-28 melanoma) | TGI (SNB-75 CNS) | TGI (OVCAR-8 ovarian) | TGI (K-562 leukemia) | TGI (MDA-MB-231 breast) | TGI (MOLT-4 leukemia) | TGI (A549 NSCLC) |
| --- | --- | --- | --- | --- | --- | --- | --- | --- | --- | --- | --- | --- | --- | --- | --- | --- | --- | --- |
| CC(=O)n1c2ccc(Br)cc2c2nc3ccccc3nc21 | > 100 µM | > 100 µM | > 100 µM | > 100 µM | > 100 µM | > 100 µM | > 100 µM | > 100 µM | > 100 µM | > 100 µM | > 100 µM | > 100 µM | > 100 µM | > 100 µM | > 100 µM | > 100 µM | > 100 µM |  |
| Nc1nccc(NCC2(CO)CC(CCc3ccccc3)C2)n1 (centres undefined) | 28.7 µM | 32.8 µM | 36.1 µM | 28.4 µM | 41.7 µM | 30.6 µM | 23.9 µM | 34.4 µM |  | 23 µM | 22.2 µM | 36.5 µM | 40.5 µM | 69.4 µM | 45.5 µM | 48.9 µM | 41.7 µM | 39.7 µM |
| C(=NC12CC3CC(CC(C3)C1)C2)C1CCCCC1 | > 100 µM | > 100 µM | > 100 µM | > 100 µM | > 100 µM | > 100 µM | > 100 µM | > 100 µM | > 100 µM | > 100 µM | > 100 µM |  | > 100 µM | > 100 µM | > 100 µM | > 100 µM | > 100 µM | > 100 µM |
| O[C@@H]1[C@H](OC2c3ccccc3-c3ccccc32)[C@H](OCc2ccccc2)[C@@H]2OC[C@H]1O2 | > 100 µM | > 100 µM | > 100 µM |  | > 100 µM | > 100 µM | > 100 µM | > 100 µM | > 100 µM | > 100 µM | > 100 µM | > 100 µM |  | > 100 µM | > 100 µM | > 100 µM | > 100 µM | > 100 µM |
| O=C(O)CCC(NC(=O)c1ccc(Nc2nc3ccc(C(F)(F)F)cc3nc2C(=O)O)cc1)C(=O)O (centres undefined) | > 100 µM | > 100 µM | > 100 µM |  | > 100 µM | > 100 µM | > 100 µM | > 100 µM | > 100 µM | > 100 µM | > 100 µM |  | > 100 µM | > 100 µM | > 100 µM | > 100 µM | > 100 µM | > 100 µM |
| CC(=O)Nc1nc2c(=O)c3ccccc3sc2s1 |  | > 100 µM | > 100 µM | > 100 µM | > 100 µM | > 100 µM | > 100 µM | > 100 µM | > 100 µM | > 100 µM | > 100 µM |  | > 100 µM | > 100 µM | > 100 µM | > 100 µM | > 100 µM | > 100 µM |
| Cc1ccc2c(c1C)CC1(Cc3ccc(C)c(C)c3C1=O)C2=O (centres undefined) | > 100 µM | > 100 µM | > 100 µM | > 100 µM | > 100 µM | > 100 µM |  | > 100 µM | > 100 µM | > 100 µM | > 100 µM | > 100 µM | > 100 µM | > 100 µM | > 100 µM | > 100 µM | > 100 µM | > 100 µM |
| CCCCCCC1OC23OC1CCC2C(O)CCC3O (centres undefined) | > 100 µM | > 100 µM | > 100 µM | > 100 µM | > 100 µM | > 100 µM | > 100 µM | > 100 µM | > 100 µM | > 100 µM | > 100 µM | > 100 µM | > 100 µM | > 100 µM | > 100 µM | > 100 µM | > 100 µM |  |
| COc1cc2c(cc1OCCCOc1cc3c(cc1OC)C(=O)N1CCC[C@H]1C(=O)N3)N=C[C@@H]1CCCN1C2=O | 38.8 µM | 69.6 µM | > 100 µM | 70.4 µM | 67 µM | > 100 µM | 35.4 µM | 42.3 µM | > 100 µM | > 100 µM | 27.3 µM | 46.8 µM | 36 µM | > 100 µM | 27.3 µM | 44 µM | 1.41 µM | 57.4 µM |
| N#CC1=C(S)N(C2OC(CO)C(O)C(O)C2O)C(c2ccccc2)=CC1c1ccco1 (centres undefined) | 53.5 µM | > 100 µM | > 100 µM | > 100 µM | > 100 µM | > 100 µM | > 100 µM | > 100 µM | > 100 µM | > 100 µM | > 100 µM | > 100 µM | 45.1 µM | > 100 µM | > 100 µM | > 100 µM | > 100 µM | > 100 µM |
| Clc1ccc(C(OCn2ccnc2)c2nc3ccccc3[nH]2)c(Cl)c1 (centres undefined) | > 100 µM | > 100 µM | > 100 µM | > 100 µM | > 100 µM | > 100 µM | > 100 µM | > 100 µM | > 100 µM | > 100 µM | > 100 µM | > 100 µM | > 100 µM | > 100 µM | > 100 µM | > 100 µM | > 100 µM | > 100 µM |
| NS(=O)(=O)c1c(O)c2ccccc2oc1=O | > 100 µM | > 100 µM |  | > 100 µM | > 100 µM | > 100 µM | > 100 µM | > 100 µM | > 100 µM | > 100 µM | > 100 µM | > 100 µM | > 100 µM | > 100 µM | > 100 µM | > 100 µM | > 100 µM | > 100 µM |
